Literature values in patent US20050215571A1, “Therapeutic combination for cognititon enhancement and psychotic disorders” (Pfizer Inc., priority 2003, published 2005).

Experiments:
[1] = not given; remark: listed apart in the source

protein binding: extensive
half-life ([1]; in vivo): 6 to 7 h
Oral bioavailability ([1]; oral, taken with food): approximately 60%
Compound: O=C1Cc2cc(CCN3CCN(c4nsc5ccccc45)CC3)c(Cl)cc2N1 [Ziprasidone, 5-[2-[4-(1,2-benzisothiazol-3-yl)piperazin-1-yl]ethyl]-6-chloroindolin-2-one]
